In ChEMBL document CHEMBL1132884, “Carbonic anhydrase inhibitors: synthesis of N-morpholylthiocarbonylsulfenylamino aromatic/heterocyclic sulfonamides and their interaction with isozymes I, II and IV” (Bioorg Med Chem Lett, 2000):

Assays:
MCF7 = assay: Compound was tested in vitro for its antitumor activity against breast cancer cell line MCF-7 (50% growth inhibition of tumor cells after 48 hr exposure ); format: functional; conditions: Homo sapiens, MCF7, 48 h
MDA-N = assay: Compound was tested in vitro for its antitumor activity against breast cancer cell line MDA-N (50% growth inhibition of tumor cells after 48 hr exposure ); format: functional; conditions: Homo sapiens
SF-295 = assay: Compound was tested in vitro for its antitumor activity against CNS cancer cell line SF-295 (50% growth inhibition of tumor cells after 48 hr exposure ); format: functional; conditions: Homo sapiens, SF-295, 48 h
SF-268 = assay: Compound was tested in vitro for its antitumor activity against CNS cancer cell line SF-268 (50% growth inhibition of tumor cells after 48 hr exposure ); format: functional; conditions: Homo sapiens, SF-268, 48 h
COLO 205 = assay: Compound was tested in vitro for its antitumor activity against colon cancer cell line COLO-205 (50% growth inhibition of tumor cells after 48 hr exposure ); format: functional; conditions: Homo sapiens, COLO 205, 48 h
HOP-62 = assay: Compound was tested in vitro for its antitumor activity against non-small cell lung cancer cell line HOP-62(50% growth inhibition of tumor cells after 48 hr exposure ); format: functional; conditions: Homo sapiens, HOP-62, 48 h
NCI-H522 = assay: Compound was tested in vitro for its antitumor activity against non-small cell lung cancer cell line NCI-H522 (50% growth inhibition of tumor cells after 48 hr exposure ); format: functional; conditions: Homo sapiens, NCI-H522, 48 h
HL-60 = assay: Compound was tested in vitro for its antitumor activity against leukemia cell line HL-60(50% growth inhibition of tumor cells after 48 hr exposure ); format: functional; conditions: Homo sapiens, HL-60, 48 h
MOLT-4 = assay: Compound was tested in vitro for its antitumor activity against leukemia cell line MOLT-4 (50% growth inhibition of tumor cells after 48 hr exposure ); format: functional; conditions: Homo sapiens, MOLT-4, 48 h
LOX IMVI = assay: Compound was tested in vitro for its antitumor activity against melanoma cell line LOX IMVI (50% growth inhibition of tumor cells after 48 hr exposure ); format: functional; conditions: Homo sapiens
M14 = assay: Compound was tested in vitro for its antitumor activity against melanoma cell line M14 (50% growth inhibition of tumor cells after 48 hr exposure ); format: functional; conditions: Homo sapiens, M14, 48 h
SK-MEL-2 = assay: Compound was tested in vitro for its antitumor activity against melanoma cell line SK-MEL-2 (50% growth inhibition of tumor cells after 48 hr exposure ); format: functional; conditions: Homo sapiens, SK-MEL-2, 48 h
IGROV-1 = assay: Compound was tested in vitro for its antitumor activity against ovarian cancer cell line IGROVI (50% growth inhibition of tumor cells after 48 hr exposure ); format: functional; conditions: Homo sapiens, IGROV-1, 48 h
OVCAR-4 = assay: Compound was tested in vitro for its antitumor activity against ovarian cancer cell line OVCAR-4 (50% growth inhibition of tumor cells after 48 hr exposure ); format: functional; conditions: Homo sapiens, OVCAR-4, 48 h
DU-145 = assay: Compound was tested in vitro for its antitumor activity against prostate cancer cell line DU-145 (50% growth inhibition of tumor cells after 48 hr exposure ); format: functional; conditions: Homo sapiens, DU-145, 48 h
786-0 = assay: Compound was tested in vitro for its antitumor activity against renal cancer cell line […] (50% growth inhibition of tumor cells after 48 hr exposure ); format: functional; conditions: Homo sapiens, 786-0, 48 h
ACHN = assay: Compound was tested in vitro for its antitumor activity against renal cancer cell line ACHN (50% growth inhibition of tumor cells after 48 hr exposure ); format: functional; conditions: Homo sapiens
CAKI-1 = assay: Compound was tested in vitro for its antitumor activity against renal cancer cell line CAKI-I (50% growth inhibition of tumor cells after 48 hr exposure ); format: functional; conditions: Homo sapiens, CAKI-1, 48 h
A549 = assay: Compound was tested in vitro for its antitumor activity against non-small cell lung cancer cell line A549/ATCC(50% growth inhibition of tumor cells after 48 hr exposure ); format: functional; conditions: Homo sapiens, A549, 48 h
PC-3 = assay: Compound was tested in vitro for its antitumor activity against prostate cancer cell line PC-3 (50% growth inhibition of tumor cells after 48 hr exposure ); format: functional; conditions: Homo sapiens, PC-3, 48 h
HCT-15 = assay: Compound was tested in vitro for its antitumor activity against colon cancer cell line HCT-15 (50% growth inhibition of tumor cells after 48 hr exposure ); format: functional; conditions: Homo sapiens, HCT-15, 48 h
SR = assay: Compound was tested in vitro for its antitumor activity against leukemia cell line SR (50% growth inhibition of tumor cells after 48 hr exposure ); format: functional; conditions: Homo sapiens
Carbonic anhydrase 1 = Carbonic anhydrase 1 (Homo sapiens, UniProt P00915)
Chain of Carbonic anhydrase 1 (P00915 whole entry): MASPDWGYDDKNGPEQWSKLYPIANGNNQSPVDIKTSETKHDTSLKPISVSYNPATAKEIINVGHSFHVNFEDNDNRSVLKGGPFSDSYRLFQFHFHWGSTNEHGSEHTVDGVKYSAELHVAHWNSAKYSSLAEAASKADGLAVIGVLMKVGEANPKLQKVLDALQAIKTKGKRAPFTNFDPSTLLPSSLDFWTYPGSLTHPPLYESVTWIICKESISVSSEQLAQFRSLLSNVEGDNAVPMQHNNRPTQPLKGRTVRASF
Description: Inhibition of human carbonic anhydrase I (CAI)

Carbonic anhydrase 2 = Carbonic anhydrase 2 (Homo sapiens, UniProt P00918)
Description: Inhibition of human carbonic anhydrase II (hCA II)

Carbonic anhydrase 4 = biological target: T1, Carbonic anhydrase 4 (Bos taurus, UniProt Q95323)
T1 sequence (Q95323 whole entry): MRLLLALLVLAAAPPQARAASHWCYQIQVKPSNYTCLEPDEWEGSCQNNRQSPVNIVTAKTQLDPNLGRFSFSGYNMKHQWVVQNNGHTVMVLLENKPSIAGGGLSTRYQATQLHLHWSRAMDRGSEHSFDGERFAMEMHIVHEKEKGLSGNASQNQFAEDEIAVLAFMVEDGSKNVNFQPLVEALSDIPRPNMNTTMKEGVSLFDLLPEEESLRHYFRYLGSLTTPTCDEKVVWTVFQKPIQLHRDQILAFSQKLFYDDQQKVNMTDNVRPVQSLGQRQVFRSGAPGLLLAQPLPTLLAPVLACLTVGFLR
Description: Inhibition of bovine carbonic anhydrase IV from bovine lung microsomes

## NS(=O)(=O)c1ccc(CNSC(=S)N2CCOCC2)cc1
MCF7
  GI50: 0.03 µM
MDA-N
  GI50: 15 µM
SF-295
  GI50: 5.4 µM
SF-268
  GI50: 16 µM
COLO 205
  GI50: 30 µM
HOP-62
  GI50: 15 µM
NCI-H522
  GI50: 0.019 µM
HL-60
  GI50: 0.09 µM
MOLT-4
  GI50: 9 µM
LOX IMVI
  GI50: 12 µM
M14
  GI50: 10 µM
SK-MEL-2
  GI50: 12 µM
IGROV-1
  GI50: 52 µM
OVCAR-4
  GI50: > 100 µM
DU-145
  GI50: 13 µM
786-0
  GI50: 10 µM
ACHN
  GI50: 15 µM
CAKI-1
  GI50: 17 µM
A549
  GI50: 38 µM
PC-3
  GI50: 12 µM
HCT-15
  GI50: 24 µM
SR
  GI50: 0.15 µM
Carbonic anhydrase 1
  Ki: 0.62 µM
Carbonic anhydrase 2
  Ki: 0.01 µM
Carbonic anhydrase 4
  Ki: 0.035 µM

## NS(=O)(=O)c1ccc(NSC(=S)N2CCOCC2)c(Cl)c1
Carbonic anhydrase 1
  Ki: 0.8 µM
Carbonic anhydrase 2
  Ki: 0.04 µM
Carbonic anhydrase 4
  Ki: 0.094 µM

## NS(=O)(=O)c1ccc(CCNSC(=S)N2CCOCC2)cc1
MCF7
  GI50: 0.026 µM
MDA-N
  GI50: 13 µM
SF-295
  GI50: > 100 µM
SF-268
  GI50: 90 µM
COLO 205
  GI50: 21 µM
HOP-62
  GI50: 62 µM
NCI-H522
  GI50: 0.075 µM
HL-60
  GI50: 0.07 µM
MOLT-4
  GI50: 54 µM
LOX IMVI
  GI50: 5 µM
M14
  GI50: 8 µM
SK-MEL-2
  GI50: 5 µM
IGROV-1
  GI50: 0.09 µM
OVCAR-4
  GI50: 61 µM
DU-145
  GI50: 10 µM
786-0
  GI50: 11 µM
ACHN
  GI50: 15 µM
CAKI-1
  GI50: 9 µM
A549
  GI50: 11 µM
PC-3
  GI50: 11 µM
HCT-15
  GI50: > 100 µM
SR
  GI50: < 0.01 µM
Carbonic anhydrase 1
  Ki: 0.36 µM
Carbonic anhydrase 2
  Ki: 0.008 µM
Carbonic anhydrase 4
  Ki: 0.024 µM

## NS(=O)(=O)c1cccc(NSC(=S)N2CCOCC2)c1
Carbonic anhydrase 1
  Ki: 10 µM
Carbonic anhydrase 2
  Ki: 0.15 µM
Carbonic anhydrase 4
  Ki: 0.29 µM

## NS(=O)(=O)c1ccc(NSC(=S)N2CCOCC2)cc1
MCF7
  GI50: 0.033 µM
MDA-N
  GI50: 61 µM
SF-295
  GI50: 44 µM
SF-268
  GI50: 58 µM
COLO 205
  GI50: 32 µM
HOP-62
  GI50: 78 µM
NCI-H522
  GI50: 0.42 µM
HL-60
  GI50: 0.086 µM
MOLT-4
  GI50: 10 µM
LOX IMVI
  GI50: 34 µM
M14
  GI50: 14 µM
SK-MEL-2
  GI50: 31 µM
IGROV-1
  GI50: 70 µM
OVCAR-4
  GI50: > 100 µM
DU-145
  GI50: 80 µM
786-0
  GI50: 12 µM
ACHN
  GI50: 31 µM
CAKI-1
  GI50: 30 µM
A549
  GI50: 46 µM
PC-3
  GI50: 24 µM
HCT-15
  GI50: 68 µM
SR
  GI50: 0.2 µM
Carbonic anhydrase 1
  Ki: 9 µM
Carbonic anhydrase 2
  Ki: 0.036 µM
Carbonic anhydrase 4
  Ki: 0.1 µM

## NS(=O)(=O)c1ccc(NSC(=S)N2CCOCC2)c(I)c1
Carbonic anhydrase 1
  Ki: 3 µM
Carbonic anhydrase 2
  Ki: 0.055 µM
Carbonic anhydrase 4
  Ki: 0.17 µM

## NS(=O)(=O)c1ccc(NNSC(=S)N2CCOCC2)cc1
Carbonic anhydrase 1
  Ki: 24 µM
Carbonic anhydrase 2
  Ki: 0.79 µM
Carbonic anhydrase 4
  Ki: 0.65 µM

## NS(=O)(=O)c1nnc(NC(=O)CCNSC(=S)N2CCOCC2)s1
Carbonic anhydrase 1
  Ki: 0.105 µM
Carbonic anhydrase 2
  Ki: 0.002 µM
Carbonic anhydrase 4
  Ki: 0.021 µM

## CCN(SC(=S)N1CCOCC1)C1CC(C)S(=O)(=O)c2sc(S(N)(=O)=O)cc21 (centres undefined)
Carbonic anhydrase 1
  Ki: > 50 µM
Carbonic anhydrase 2
  Ki: 0.006 µM
Carbonic anhydrase 4
  Ki: 0.022 µM

## Cn1nc(S(N)(=O)=O)s/c1=N/SC(=S)N1CCOCC1
Carbonic anhydrase 1
  Ki: 0.2 µM
Carbonic anhydrase 2
  Ki: 0.006 µM
Carbonic anhydrase 4
  Ki: 0.026 µM

## NS(=O)(=O)c1ccc(NSC(=S)N2CCOCC2)c(F)c1
Carbonic anhydrase 1
  Ki: 0.76 µM
Carbonic anhydrase 2
  Ki: 0.033 µM
Carbonic anhydrase 4
  Ki: 0.12 µM
